# Experimental data: PMC3567251 (Biochemistry, 2012)
# “And” between values parts separate entries of the source, which are not always exact repeats. Identical values can stand only once. “Also recorded” adds a separate entry of the source. Like-named read-outs stand apart in the source and are kept apart here.
# Columns and labels:
# PaMTADA [1] = biological target: T1, PaMTADA (Pseudomonas aeruginosa, UniProt Q9HZ64); assay type: biochemical
# PaMTADA [2] = assay type: biochemical, Pseudomonas aeruginosa; conditions: times higher than PfADA
# PfADA [3] = conditions: substrate; ref Ting et al. [13]; cited from earlier work
# human ADA [4] = conditions: cited from earlier work
# bovine ADA = conditions: result in words; cited from earlier work
# PfADA [5] = test: Inhibition of PfADA; assay type: biochemical, Plasmodium falciparum; conditions: times weaker than CF
# PfADA [6] = conditions: cited from earlier work
# human ADA [7] = conditions: cited from earlier work; for inhibition of human ADA: result in words
# PaMTADA [8] = biological target: T2, PaMTADA (Pseudomonas aeruginosa, UniProt Q9HZ64); test: Inhibition of PaMTADA activity in cell lysates; assay type: biochemical, P. aeruginosa PAO1; conditions: cell lysate, 50 nM inhibitor
# T2 sequence (Q9HZ64 1-444): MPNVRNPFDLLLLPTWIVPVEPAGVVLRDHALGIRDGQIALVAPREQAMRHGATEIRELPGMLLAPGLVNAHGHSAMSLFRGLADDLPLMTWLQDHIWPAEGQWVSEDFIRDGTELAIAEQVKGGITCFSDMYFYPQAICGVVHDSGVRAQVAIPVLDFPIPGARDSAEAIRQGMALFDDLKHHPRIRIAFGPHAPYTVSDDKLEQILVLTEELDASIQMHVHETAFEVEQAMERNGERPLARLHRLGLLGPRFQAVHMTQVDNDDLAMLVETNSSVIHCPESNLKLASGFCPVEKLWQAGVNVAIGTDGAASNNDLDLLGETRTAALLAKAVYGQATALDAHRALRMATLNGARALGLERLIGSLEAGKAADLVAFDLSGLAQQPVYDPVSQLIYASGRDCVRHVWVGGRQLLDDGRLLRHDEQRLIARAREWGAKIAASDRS
# [9] = biological target: T3, cellular PaMTADA activity (Pseudomonas aeruginosa, UniProt Q9HZ64); test: Inhibition of cellular PaMTADA; assay type: cell-based, P. aeruginosa PAO1
# T3 sequence (Q9HZ64 1-444): T2 sequence (Q9HZ64 1-444)
# P. aeruginosa PAO1 = test: Growth of P. aeruginosa PAO1 with or without MTCF; assay type: cell-based; conditions: up to 1 μM, 36 hours, 37 °C
# PaMTADA [10] = biological target: T1, PaMTADA; assay type: biochemical; conditions: times weaker than MTDCF
# [11] = substrate, ref Tyler et al. [16]
# [12] = read-out: Ki* from slow-onset inhibition, Ki* values
# [13] = equilibrium dissociation constant
compound,measurement,setting,value
5′-methylthioadenosine [MTA],catalytic efficiency (kcat/Km) for MTA relative to adenosine,PaMTADA [1]; MTA over adenosine,40 fold
same,Km,"PaMTADA [1]; substrate, 25 °C, pH 7.4",1.5 ± 0.3 µM
same,kcat,"PaMTADA [1]; substrate, 25 °C, pH 7.4",24.6 s⁻¹ and 24.6 ± 0.8 s⁻¹
same,catalytic efficiency of PaMTADA on MTA relative to PfADA,PaMTADA [2],160 times
same,Km,PfADA [3],170 ± 20 µM
same,kcat,PfADA [3],15.0 ± 0.9 s⁻¹
same,use as substrate by human ADA,human ADA [4]; result in words,do not utilize
same,kcat,human ADA [4]; [11],< 0.02 s⁻¹
same,use as substrate by bovine ADA,bovine ADA,do not utilize
"CSC[C@H]1O[C@@H](n2cnc3c2N=CNC[C@H]3O)C[C@@H]1O [MTDCF, 5′-methylthio-2′-deoxycoformycin]",binding affinity for PfADA relative to CF,PfADA [5],9 times
same,Ki,PfADA [6]; [12],0.7 ± 0.2 nM
same,Ki,human ADA [7]; [13],> 10000 nM
same,inhibition of human ADA,human ADA [7],no inhibitory effect
Nc1ncnc2c1ncn2[C@@H]1O[C@H](CO)[C@@H](O)[C@H]1O [adenosine],kcat,"PaMTADA [1]; substrate, 25 °C, pH 7.4",17 ± 1 s⁻¹
same,kcat,PfADA [3],1.8 ± 0.1 s⁻¹
same,Km,human ADA [4]; [11],22 ± 3 µM
same,kcat,human ADA [4]; [11],36 ± 1 s⁻¹
"CSC[C@H]1O[C@@H](n2cnc3c2N=CNC[C@H]3O)[C@H](O)[C@@H]1O [MTCF, 5′-methylthiocoformycin]",degradation of MTA,PaMTADA [8],completely blocked
same,PaMTADA activity,[9]; 500 nM MTCF in LB medium plus 100 nM MTCF added to cell lysate,All PaMTADA activity was inhibited
same,concentration of maximal inhibition,[9]; MTCF in LB medium,10 nM
same,effect on cell growth based on OD600,P. aeruginosa PAO1,no effect
same,Ki,PfADA [6]; [12],0.4 ± 0.1 nM
same,Ki,human ADA [7]; [13],> 10000 nM
same,inhibition of human ADA,human ADA [7],no significant inhibition; also recorded: no inhibitory effect; also recorded: no significant inhibitory effects
"CCCSC[C@H]1O[C@@H](n2cnc3c2N=CNC[C@H]3O)C[C@@H]1O [PrTDCF, 5′-propylthio-2′-deoxycoformycin]",binding to PaMTADA relative to MTDCF,PaMTADA [10],8 times
same,binding affinity for PfADA relative to CF,PfADA [5],150 times
same,Ki,PfADA [6]; [13],12 ± 1 nM
same,Ki,human ADA [7]; [13],> 10000 nM
"O[C@@H]1CNC=Nc2c1ncn2[C@H]1C[C@H](O)[C@@H](CSc2ccccc2)O1 [PhTDCF, 5′-phenylthio-2′-deoxycoformycin]",Ki,PfADA [6]; [13],60 ± 10 nM
"OC[C@H]1O[C@@H](n2cnc3c2N=CNC[C@H]3O)[C@H](O)[C@@H]1O [Coformycin (CF), (2R,3R,4S,5R)-2-((R)-8-hydroxy-7,8-dihydroimidazo[4,5-d][1,3]diazepin-3(6H)-yl)-5-(hydroxymethyl)tetrahydrofuran-3,4-diol, reference compound]",Ki,PfADA [6]; [12],0.08 ± 0.02 nM
same,Ki,human ADA [7]; [12],0.11 ± 0.02 nM
